In patent US9062124B2, “GIP-based mixed agonists for treatment of metabolic disorders and obesity” (priority 2008, dated 2015):
Where a SMILES comes first, the peptide text is derived from it. [ ]: non-standard residue; d: D form. The star is where a group is joined. Stearoyl = CCCCCCCCCCCCCCCCCC(=O)*; Palmitoyl = CCCCCCCCCCCCCCCC(=O)*; Myristoyl = CCCCCCCCCCCCCC(=O)*; Aib = CC(C)(N)C(=O)O

Columns and labels:
[1] = system: glucagon receptor, GLP-1 receptor or GIP receptor; test: Agonist profile across receptors assigned from the cAMP reporter assay data; type: cell-based; details: assigned from the in vitro EC50 data of Tables 1-4
[2] = Blood glucose levels of mice after peptide injection
GIP receptor = target: T1, GIP receptor (Homo sapiens, UniProt P48546); test: cAMP synthesis functional assay (firefly luciferase reporter in HEK293 cells), GIP receptor; type: cell-based; details: for EC50: GIP Receptor EC50, cAMP luciferase reporter assay as in Example 16; for % activity at the GIP receptor: Table 5, relative to the native hormone; for GIP Receptor relative activity: relative to the standard (Std.) EC50 of the same run
T1 construct: expressed in transfected cells; host or cells: HEK293
T1 sequence (P48546 22-466): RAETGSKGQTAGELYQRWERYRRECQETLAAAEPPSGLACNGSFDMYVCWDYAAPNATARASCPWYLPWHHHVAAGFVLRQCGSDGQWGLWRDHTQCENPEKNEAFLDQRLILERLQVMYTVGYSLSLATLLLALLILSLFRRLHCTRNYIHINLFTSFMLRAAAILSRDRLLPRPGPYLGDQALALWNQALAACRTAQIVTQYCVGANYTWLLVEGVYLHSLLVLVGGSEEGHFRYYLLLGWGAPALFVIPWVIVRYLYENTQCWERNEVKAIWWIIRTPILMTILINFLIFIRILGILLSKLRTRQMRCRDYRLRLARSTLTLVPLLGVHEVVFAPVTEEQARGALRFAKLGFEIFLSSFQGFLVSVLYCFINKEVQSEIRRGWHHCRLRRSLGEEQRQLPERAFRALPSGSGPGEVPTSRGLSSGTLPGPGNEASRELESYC

GLP-1 receptor = target: T2, GLP-1 receptor (Homo sapiens, UniProt P43220); test: cAMP synthesis functional assay (firefly luciferase reporter in HEK293 cells), GLP-1 receptor; type: cell-based; details: for % activity at the GLP-1 receptor: Table 5, relative to the native hormone; for GLP-1 Receptor relative activity: relative to the standard (Std.) EC50 of the same run
T2 construct: expressed in transfected cells; host or cells: HEK293

[3] = Body weight of mice after peptide injection; details: Example 31; DIO mice, subcutaneous daily for 1 week, 10 nmol/kg
glucagon receptor = target: T3, glucagon receptor (Homo sapiens, UniProt P47871); test: cAMP synthesis functional assay (firefly luciferase reporter in HEK293 cells), glucagon receptor; type: cell-based; details: for EC50: Glucagon Receptor EC50, cAMP luciferase reporter assay as in Example 16; for % activity at the glucagon receptor: Table 5, relative to the native hormone; for Glucagon Receptor relative activity: relative to the standard (Std.) EC50 of the same run
T3 construct: expressed in transfected cells; host or cells: HEK293
T3 sequence (P47871 26-477): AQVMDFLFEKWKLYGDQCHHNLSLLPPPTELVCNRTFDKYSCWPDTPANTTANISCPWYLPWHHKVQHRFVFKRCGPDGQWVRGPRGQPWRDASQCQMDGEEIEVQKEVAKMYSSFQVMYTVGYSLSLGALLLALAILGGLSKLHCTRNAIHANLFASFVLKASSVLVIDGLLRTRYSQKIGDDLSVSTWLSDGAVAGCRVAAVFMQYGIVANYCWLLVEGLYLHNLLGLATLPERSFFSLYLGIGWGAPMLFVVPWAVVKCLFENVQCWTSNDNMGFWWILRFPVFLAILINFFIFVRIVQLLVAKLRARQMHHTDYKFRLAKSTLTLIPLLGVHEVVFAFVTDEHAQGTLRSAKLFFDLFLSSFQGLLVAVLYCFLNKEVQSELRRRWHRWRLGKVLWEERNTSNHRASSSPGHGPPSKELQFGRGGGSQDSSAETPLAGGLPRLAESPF

T2 sequence (P43220 24-463, species assumed): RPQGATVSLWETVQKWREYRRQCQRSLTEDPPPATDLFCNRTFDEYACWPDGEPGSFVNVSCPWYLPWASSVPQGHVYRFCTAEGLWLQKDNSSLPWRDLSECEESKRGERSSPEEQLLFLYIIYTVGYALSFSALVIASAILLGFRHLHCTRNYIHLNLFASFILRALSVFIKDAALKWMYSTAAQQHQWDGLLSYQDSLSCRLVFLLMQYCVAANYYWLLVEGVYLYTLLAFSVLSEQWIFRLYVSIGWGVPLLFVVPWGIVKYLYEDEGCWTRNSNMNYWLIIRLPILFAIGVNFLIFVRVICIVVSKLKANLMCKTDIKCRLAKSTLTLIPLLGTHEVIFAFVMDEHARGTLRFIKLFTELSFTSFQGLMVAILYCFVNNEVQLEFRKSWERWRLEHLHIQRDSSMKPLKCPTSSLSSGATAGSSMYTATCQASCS

SMILES	receptor activity profile (glucagon / GLP-1 / GIP agonism) [1]	decrease in blood glucose levels ([2]; Example 29, mice, QD for 7 days, 25 nmol/kg) [%]	decrease in blood glucose levels ([2]; Example 30, 10 nmol/kg dose, Day 7 compared to Day 0) [mg/dL]	EC50 (GIP receptor) [pM]	% activity at the GLP-1 receptor (GLP-1 receptor) [%]	GLP-1 Receptor relative activity (GLP-1 receptor) [%]	body weight [3]	EC50 (glucagon receptor) [pM]	% activity at the glucagon receptor (glucagon receptor) [%]	Glucagon Receptor relative activity (glucagon receptor) [%]	% activity at the GIP receptor (GIP receptor) [%]	GIP Receptor relative activity (GIP receptor) [%]
CCCCCCCCCCCCCCCCCC(=O)NCCCC[C@H](NC(=O)[C@H](CO)NC(=O)[C@@H]1CCCN1C(=O)[C@@H]1CCCN1C(=O)[C@@H]1CCCN1C(=O)[C@H](C)NC(=O)CNC(=O)[C@H](CO)NC(=O)[C@H](CO)NC(=O)[C@@H]1CCCN1C(=O)CNC(=O)CNC(=O)[C@H](C)NC(=O)[C@H](CC(C)C)NC(=O)[C@H](CC(C)C)NC(=O)[C@H](Cc1c[nH]c2ccccc12)NC(=O)[C@H](CC(N)=O)NC(=O)[C@@H](NC(=O)[C@H](Cc1ccccc1)NC(=O)[C@H](CCC(=O)O)NC(=O)C(C)(C)NC(=O)[C@H](C)NC(=O)[C@H](C)NC(=O)[C@H](CCC(N)=O)NC(=O)[C@H](CCCCN)NC(=O)[C@H](CC(=O)O)NC(=O)[C@H](CC(C)C)NC(=O)[C@H](Cc1ccc(O)cc1)NC(=O)[C@@H](NC(=O)[C@H](CO)NC(=O)[C@H](Cc1ccc(O)cc1)NC(=O)[C@H](CC(=O)O)NC(=O)[C@H](CO)NC(=O)[C@@H](NC(=O)[C@H](Cc1ccccc1)NC(=O)[C@@H](NC(=O)CNC(=O)[C@H](CCC(=O)O)NC(=O)C(C)(C)NC(=O)[C@@H](N)Cc1ccc(O)cc1)[C@@H](C)O)[C@@H](C)O)[C@@H](C)CC)C(C)C)C(N)=O [mt-262]	exhibited activity at the GIP, GLP-1, and glucagon receptors	~50	–	–	–	–	–	–	–	–	–	–
CC[C@H](C)[C@H](NC(=O)[C@H](CO)NC(=O)[C@H](Cc1ccc(O)cc1)NC(=O)[C@H](CC(=O)O)NC(=O)[C@H](CO)NC(=O)[C@@H](NC(=O)[C@H](Cc1ccccc1)NC(=O)[C@@H](NC(=O)CNC(=O)[C@H](CCC(=O)O)NC(=O)C(C)(C)NC(=O)[C@@H](N)Cc1ccc(O)cc1)[C@@H](C)O)[C@@H](C)O)C(=O)N[C@@H](Cc1ccc(O)cc1)C(=O)N[C@@H](CC(C)C)C(=O)N[C@@H](CC(=O)O)C(=O)N[C@@H](CCCCN)C(=O)N[C@@H](CCC(N)=O)C(=O)N[C@@H](C)C(=O)N[C@@H](C)C(=O)NC(C)(C)C(=O)N[C@@H](CCC(=O)O)C(=O)N[C@@H](Cc1ccccc1)C(=O)N[C@H](C(=O)N[C@@H](CC(N)=O)C(=O)N[C@@H](Cc1c[nH]c2ccccc12)C(=O)N[C@@H](CC(C)C)C(=O)N[C@@H](CC(C)C)C(=O)N[C@@H](C)C(=O)NCC(=O)NCC(=O)N1CCC[C@H]1C(=O)N[C@@H](CO)C(=O)N[C@@H](CO)C(=O)NCC(=O)N[C@@H](C)C(=O)N1CCC[C@H]1C(=O)N1CCC[C@H]1C(=O)N1CCC[C@H]1C(=O)N[C@@H](CO)C(=O)N[C@@H](CCCCN)C(N)=O)C(C)C [mt-263]	–	–	~-80	3.1	–	–	–	–	–	–	–	–
CCCCCCCCCCCCCC(=O)NCCCC[C@H](NC(=O)[C@H](CO)NC(=O)[C@@H]1CCCN1C(=O)[C@@H]1CCCN1C(=O)[C@@H]1CCCN1C(=O)[C@H](C)NC(=O)CNC(=O)[C@H](CO)NC(=O)[C@H](CO)NC(=O)[C@@H]1CCCN1C(=O)CNC(=O)CNC(=O)[C@H](C)NC(=O)[C@H](CC(C)C)NC(=O)[C@H](CC(C)C)NC(=O)[C@H](Cc1c[nH]c2ccccc12)NC(=O)[C@H](CC(N)=O)NC(=O)[C@@H](NC(=O)[C@H](Cc1ccccc1)NC(=O)[C@H](CCC(=O)O)NC(=O)C(C)(C)NC(=O)[C@H](C)NC(=O)[C@H](C)NC(=O)[C@H](CCC(N)=O)NC(=O)[C@H](CCCCN)NC(=O)[C@H](CC(=O)O)NC(=O)[C@H](CC(C)C)NC(=O)[C@H](Cc1ccc(O)cc1)NC(=O)[C@@H](NC(=O)[C@H](CO)NC(=O)[C@H](Cc1ccc(O)cc1)NC(=O)[C@H](CC(=O)O)NC(=O)[C@H](CO)NC(=O)[C@@H](NC(=O)[C@H](Cc1ccccc1)NC(=O)[C@@H](NC(=O)CNC(=O)[C@H](CCC(N)=O)NC(=O)C(C)(C)NC(=O)[C@@H](N)Cc1ccc(O)cc1)[C@@H](C)O)[C@@H](C)O)[C@@H](C)CC)C(C)C)C(N)=O [mt-277] (H-Y[Aib]QGTFTSDYSIYLDKQAA[Aib]EFVNWLLAGGPSSGAPPPSK(Myristoyl)-NH2; N-terminus assumed)	exhibited activity at the GIP, GLP-1, and glucagon receptors	–	–	–	224	224.42	caused significant weight loss in the mice	21.5	235	235.35	446	455.77
CCCCCCCCCCCCCCCC(=O)NCCCC[C@H](NC(=O)[C@H](CO)NC(=O)[C@@H]1CCCN1C(=O)[C@@H]1CCCN1C(=O)[C@@H]1CCCN1C(=O)[C@H](C)NC(=O)CNC(=O)[C@H](CO)NC(=O)[C@H](CO)NC(=O)[C@@H]1CCCN1C(=O)CNC(=O)CNC(=O)[C@H](C)NC(=O)[C@H](CC(C)C)NC(=O)[C@H](CC(C)C)NC(=O)[C@H](Cc1c[nH]c2ccccc12)NC(=O)[C@H](CC(N)=O)NC(=O)[C@@H](NC(=O)[C@H](Cc1ccccc1)NC(=O)[C@H](CCC(=O)O)NC(=O)C(C)(C)NC(=O)[C@H](C)NC(=O)[C@H](C)NC(=O)[C@H](CCC(N)=O)NC(=O)[C@H](CCCCN)NC(=O)[C@H](CC(=O)O)NC(=O)[C@H](CC(C)C)NC(=O)[C@H](Cc1ccc(O)cc1)NC(=O)[C@@H](NC(=O)[C@H](CO)NC(=O)[C@H](Cc1ccc(O)cc1)NC(=O)[C@H](CC(=O)O)NC(=O)[C@H](CO)NC(=O)[C@@H](NC(=O)[C@H](Cc1ccccc1)NC(=O)[C@@H](NC(=O)CNC(=O)[C@H](CCC(N)=O)NC(=O)C(C)(C)NC(=O)[C@@H](N)Cc1ccc(O)cc1)[C@@H](C)O)[C@@H](C)O)[C@@H](C)CC)C(C)C)C(N)=O [mt-278] (H-Y[Aib]QGTFTSDYSIYLDKQAA[Aib]EFVNWLLAGGPSSGAPPPSK(Palmitoyl)-NH2; N-terminus assumed)	exhibited activity at the GIP, GLP-1, and glucagon receptors	–	–	2.8	460	459.52	caused significant weight loss in the mice	8.6	588	588.37	846	846.43
CCCCCCCCCCCCCCCCCC(=O)NCCCC[C@H](NC(=O)[C@H](CO)NC(=O)[C@@H]1CCCN1C(=O)[C@@H]1CCCN1C(=O)[C@@H]1CCCN1C(=O)[C@H](C)NC(=O)CNC(=O)[C@H](CO)NC(=O)[C@H](CO)NC(=O)[C@@H]1CCCN1C(=O)CNC(=O)CNC(=O)[C@H](C)NC(=O)[C@H](CC(C)C)NC(=O)[C@H](CC(C)C)NC(=O)[C@H](Cc1c[nH]c2ccccc12)NC(=O)[C@H](CC(N)=O)NC(=O)[C@@H](NC(=O)[C@H](Cc1ccccc1)NC(=O)[C@H](CCC(=O)O)NC(=O)C(C)(C)NC(=O)[C@H](C)NC(=O)[C@H](C)NC(=O)[C@H](CCC(N)=O)NC(=O)[C@H](CCCCN)NC(=O)[C@H](CC(=O)O)NC(=O)[C@H](CC(C)C)NC(=O)[C@H](Cc1ccc(O)cc1)NC(=O)[C@@H](NC(=O)[C@H](CO)NC(=O)[C@H](Cc1ccc(O)cc1)NC(=O)[C@H](CC(=O)O)NC(=O)[C@H](CO)NC(=O)[C@@H](NC(=O)[C@H](Cc1ccccc1)NC(=O)[C@@H](NC(=O)CNC(=O)[C@H](CCC(N)=O)NC(=O)C(C)(C)NC(=O)[C@@H](N)Cc1ccc(O)cc1)[C@@H](C)O)[C@@H](C)O)[C@@H](C)CC)C(C)C)C(N)=O [mt-279] (H-Y[Aib]QGTFTSDYSIYLDKQAA[Aib]EFVNWLLAGGPSSGAPPPSK(Stearoyl)-NH2; N-terminus assumed)	exhibited activity at the GIP, GLP-1, and glucagon receptors	–	–	4.5	420	419.57	caused significant weight loss in the mice	6.9	733	733.33	527	526.67
